From patent US20220125051A1, “PRE-HARVEST DESICCATION METHOD” (SYNGENTA CROP PROTECTION AG, priority 2019, published 2022) come the findings set out here.

Molecules are shown by their SMILES. Where two headings read alike, the source gives them in different places.

Holding throughout (assay): Post-emergence efficacy, Method A
What all share (format): in vivo

For assay [1], the system named is Amaranthus palmeri (AMAPA). Particulars: evaluated after 13 days; for pest or weed control at 500 g/ha: Amaranthus palmeri, post-emergence, 312 h. Put shortly: (§1)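 Plants grown 14 days in glasshouse (24/16 °C, 14 h light, 65% humidity) were sprayed with compound formulated in IF50. The spray was diluted in 0.25% or 1% Empicol ESC70 plus 1% ammonium sulphate. Damage was scored 13 days later on a 0-100 scale, where 100 is total damage.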

For assay [2], the system named is Chenopodium album (CHEAL). The conditions noted are these: evaluated after 13 days; for pest or weed control at 500 g/ha: Chenopodium album, post-emergence, 312 h. An outline of the steps:
as §1

Assay [3] deals with Digitaria sanguinalis (DIGSA). The conditions noted are these: evaluated after 13 days; for pest or weed control at 500 g/ha: Digitaria sanguinalis, post-emergence, 312 h. An outline of the steps: as §1
Assay [4] has as its system Echinochloa crus-galli (ECHCG). Particulars: evaluated after 13 days; for pest or weed control at 500 g/ha: Echinochloa crus-galli, post-emergence, 312 h. An outline of the steps: as §1
The next assay relates to Eleusine indica (ELEIN). The conditions noted are these: evaluated after 13 days; for pest or weed control at 500 g/ha: Eleusine indica, post-emergence, 312 h. An outline of the steps: as §1
Assay [5] relates to Euphorbia heterophylla (EPHHL). The conditions noted are these: evaluated after 13 days; for pest or weed control at 500 g/ha: Euphorbia heterophylla, post-emergence, 312 h. An outline of the steps:
as §1

Assay [6] concerns Ipomoea hederacea (IPOHE). Particulars: evaluated after 13 days; for pest or weed control at 500 g/ha: Ipomoea hederacea, post-emergence, 312 h. Put shortly: as §1
In another assay the test system is Lolium perenne (LOLPE). The conditions noted are these: evaluated after 13 days; for pest or weed control at 500 g/ha: Lolium perenne, post-emergence, 312 h. Put shortly:
as §1

For the next assay, the system named is Setaria faberi (SETFA). The conditions noted are these: evaluated after 13 days; for pest or weed control at 500 g/ha: Setaria faberi, post-emergence, 312 h. Put shortly: as §1
Where [7] appears, read: Application Rate 500 g/Ha, Method A, read-out: Control of weed species after post-emergence application, AMAPA (100=total damage to plant; 0=no damage to plant).
The mark [8] stands for this setting: Application Rate 500 g/Ha, Method A, read-out: Control of weed species after post-emergence application, CHEAL (100=total damage to plant; 0=no damage to plant).
[9] abbreviates: Application Rate 500 g/Ha, Method A, read-out: Control of weed species after post-emergence application, DIGSA (100=total damage to plant; 0=no damage to plant).
Setting [10] is: Application Rate 500 g/Ha, Method A, read-out: Control of weed species after post-emergence application, ECHCG (100=total damage to plant; 0=no damage to plant).
[11] abbreviates: Application Rate 500 g/Ha, Method A, read-out: Control of weed species after post-emergence application, ELEIN (100=total damage to plant; 0=no damage to plant).
[12] abbreviates: Application Rate 500 g/Ha, Method A, read-out: Control of weed species after post-emergence application, EPHHL (100=total damage to plant; 0=no damage to plant).
The mark [13] stands for this setting: Application Rate 500 g/Ha, Method A, read-out: Control of weed species after post-emergence application, IPOHE (100=total damage to plant; 0=no damage to plant).
Setting [14] is: Application Rate 500 g/Ha, Method A, read-out: Control of weed species after post-emergence application, LOLPE (100=total damage to plant; 0=no damage to plant).
Setting [15] is: Application Rate 500 g/Ha, Method A, read-out: Control of weed species after post-emergence application, SETFA (100=total damage to plant; 0=no damage to plant).
The mark [16] stands for this setting: Application rate 500 g/Ha, 100=total damage to plant, 0=no damage to plant, read-out: Control of weed species after post-emergence application, AMAPA.
Where [17] appears, read: Application rate 500 g/Ha, 100=total damage to plant, 0=no damage to plant, read-out: Control of weed species after post-emergence application, CHEAL.
Setting [18] is: Application rate 500 g/Ha, 100=total damage to plant, 0=no damage to plant, read-out: Control of weed species after post-emergence application, DIGSA.
The mark [19] stands for this setting: Application rate 500 g/Ha, 100=total damage to plant, 0=no damage to plant, read-out: Control of weed species after post-emergence application, ECHCG.
The mark [20] stands for this setting: Application rate 500 g/Ha, 100=total damage to plant, 0=no damage to plant, read-out: Control of weed species after post-emergence application, ELEIN.
The mark [21] stands for this setting: Application rate 500 g/Ha, 100=total damage to plant, 0=no damage to plant, read-out: Control of weed species after post-emergence application, EPHHL.
Setting [22] is: Application rate 500 g/Ha, 100=total damage to plant, 0=no damage to plant, read-out: Control of weed species after post-emergence application, IPOHE.
The mark [23] stands for this setting: Application rate 500 g/Ha, 100=total damage to plant, 0=no damage to plant, read-out: Control of weed species after post-emergence application, LOLPE.
Where [24] appears, read: Application rate 500 g/Ha, 100=total damage to plant, 0=no damage to plant, read-out: Control of weed species after post-emergence application, SETFA.
Where [25] appears, read: Application Rate 500 g/Ha, Method A.

Take `Nc1nccc(-c2cc[n+](CCC(=O)O)nc2)n1` [Compound A160]: the pest or weed control at 500 g/ha in assay [1] (setting [7]) turned out to be 100%; in assay [2] (setting [8]), 100%; in assay [3] (setting [9]), 70%; in assay [4] (setting [10]), 70%; in the assay with Eleusine indica (ELEIN) (setting [11]), 80%; in [5] (setting [12]), 90%. The results for the pest or weed control at 500 g/ha (in [6] (setting [13]); in the assay with Lolium perenne (LOLPE) (setting [14]); in the assay with Setaria faberi (SETFA) (setting [15])) were 70%, 70% and 90%, respectively.
With `O=S(=O)([O-])CC[n+]1ccc(-c2ccnc(C(F)(F)F)n2)cn1` [Compound A108], the pest or weed control at 500 g/ha in assay [1] (setting [16]) turned out to be 40%; in assay [2] (setting [17]), 80%; in [3] (setting [18]), 50%; in [4] (setting [19]), 40%; in the assay on Eleusine indica (ELEIN) (setting [20]), 60%; in [5] (setting [21]), 80%. Further, the pest or weed control at 500 g/ha in assay [6] (setting [22]) came out at 70%; with Lolium perenne (LOLPE) (setting [23]), 40%; in the assay on Setaria faberi (SETFA) (setting [24]), 60%.
Consider `Nc1cc(-c2cc[n+](CCC(=O)O)nc2)ccn1` [Compound A210], for which the pest or weed control at 500 g/ha amounted to 70% in assay [1] (setting [7]); 10% in [2] (setting [8]); 60% in assay [3] (setting [9]); 10% in [4] (setting [10]); 20% in the assay with Eleusine indica (ELEIN) (setting [11]); 10% in assay [5] (setting [12]). The pest or weed control at 500 g/ha came out at 10% in assay [6] (setting [13]), 20% in the assay on Lolium perenne (LOLPE) (setting [14]) and 30% with Setaria faberi (SETFA) (setting [15]).
As to `O=S(=O)([O-])CC[n+]1ccc(-c2ncccc2F)cn1` [Compound A68], the pest or weed control at 500 g/ha stood at 60% in assay [1] (setting [16]); 70% in assay [2] (setting [17]); 40% in assay [3] (setting [18]); 70% in assay [4] (setting [19]); 70% in the assay on Eleusine indica (ELEIN) (setting [20]); 100% in assay [5] (setting [21]). Besides, the pest or weed control at 500 g/ha in assay [6] (setting [22]) is 50%; in the assay with Lolium perenne (LOLPE) (setting [23]) it was 60%; in the assay on Setaria faberi (SETFA) (setting [24]), 60%.
Take `COc1cncc(-c2cc[n+](CCCS(=O)(=O)[O-])nc2)n1` [Compound A90]: the pest or weed control at 500 g/ha in assay [1] (setting [16]) was determined as 40%; in assay [2] (setting [17]), 20%; in [3] (setting [18]), 30%; in assay [4] (setting [19]) it was 20%; with Eleusine indica (ELEIN) (setting [20]), 20%; in assay [5] (setting [21]), 60%. Also, the pest or weed control at 500 g/ha in assay [6] (setting [22]) came to 30%; in the assay on Lolium perenne (LOLPE) (setting [23]) it was 20%; with Setaria faberi (SETFA) (setting [24]), 30%.
As for `O=P(O)(O)C[n+]1ccc(-c2ccncn2)cn1` [Compound A236], the “Control of weed species after post-emergence application, AMAPA (100=total damage to plant; 0=no damage to plant)” value in [1] (setting [25]) came out at 90. Further, the “Control of weed species after post-emergence application, CHEAL (100=total damage to plant; 0=no damage to plant)” value in [2] (setting [25]) worked out at 20. The “Control of weed species after post-emergence application, DIGSA (100=total damage to plant; 0=no damage to plant)” value in assay [3] (setting [25]) is reported as 80. For the same compound, in assay [4] (setting [25]), the “Control of weed species after post-emergence application, ECHCG (100=total damage to plant; 0=no damage to plant)” value is given as 50. Besides, the “Control of weed species after post-emergence application, ELEIN (100=total damage to plant; 0=no damage to plant)” value in the assay with Eleusine indica (ELEIN) (setting [25]) is recorded as 10. The “Control of weed species after post-emergence application, EPHHL (100=total damage to plant; 0=no damage to plant)” value in assay [5] (setting [25]) is recorded as 30. For the same compound, the “Control of weed species after post-emergence application, IPOHE (100=total damage to plant; 0=no damage to plant)” value in assay [6] (setting [25]) was 40. Also, the “Control of weed species after post-emergence application, LOLPE (100=total damage to plant; 0=no damage to plant)” value with Lolium perenne (LOLPE) (setting [25]) is 0. Further, in the assay on Setaria faberi (SETFA) (setting [25]), the “Control of weed species after post-emergence application, SETFA (100=total damage to plant; 0=no damage to plant)” value was determined as 30.
For the compound `O=S(=O)([O-])CC[n+]1ccc(-c2ccc(C(F)(F)F)cn2)cn1` [Compound A174], the pest or weed control at 500 g/ha in assay [1] (setting [7]) came out at 100%; in assay [2] (setting [8]) it was 40%; in [3] (setting [9]), 50%; in [4] (setting [10]), 50%; with Eleusine indica (ELEIN) (setting [11]), 60%; in assay [5] (setting [12]) it was 60%. Moreover, the pest or weed control at 500 g/ha was determined as 50% in [6] (setting [13]), 60% with Lolium perenne (LOLPE) (setting [14]) and 60% with Setaria faberi (SETFA) (setting [15]).
